Experimental findings from ChEMBL document CHEMBL4196086, “Recent advances of imidazole-containing derivatives as anti-tubercular agents” (Eur J Med Chem, 2018) are described below.

Converted amounts (≈) assume the structure as drawn. A value given as a limit tells only on which side of the number the result lay.

Data set [1] deals with Mycobacterium tuberculosis. As to the kind of experiment: Antimycobacterial activity against Mycobacterium tuberculosis H37Rv. Conditions: Mycobacterium tuberculosis, H37Rv. The data set is classed as functional.
The nature of data set [2]: Inhibition of Mycobacterium tuberculosis IMPDH.
The subject of data set [3] is Mycobacterium tuberculosis. Briefly: Antimycobacterial activity against Mycobacterium tuberculosis. The data set is classed as functional.
Data set [4] concerns Mycobacterium tuberculosis. As to the kind of experiment: Growth inhibition of Mycobacterium tuberculosis H37Rv at 100 ug/ml relative to control. The data set is classed as functional. Conditions: read-out: GI.
In data set [5] the test system is Mycobacterium tuberculosis. Briefly: Antimycobacterial activity against non-replicating Mycobacterium tuberculosis. The data set is classed as functional.
Data set [6] deals with Mycobacterium tuberculosis. Briefly: Antimycobacterial activity against Mycobacterium tuberculosis H37Rv ATCC 27294 by MABA. The data set is classed as functional.
A short description of data set [7]: Selectivity index, ratio of IC50 for African green monkey Vero cells to MIC for Mycobacterium tuberculosis H37Rv ATCC 27294. Conditions: read-out: Selectivity Index. The data set is classed as toxicity.
Data set [8] relates to Mycobacterium tuberculosis. As to the kind of experiment: Antimycobacterial activity against Mycobacterium tuberculosis H37Rv in logarithmic phase. The data set is classed as functional.
Data set [9] concerns Mycobacterium tuberculosis. Briefly: Antimycobacterial activity against Mycobacterium tuberculosis H37Rv in hypoxia-induced latent phase. The data set is classed as functional.
In data set [10] the test system is Mycobacterium tuberculosis. As to the kind of experiment: Potency index, ratio of isoniazid MIC to compound MIC for Mycobacterium tuberculosis H37Rv. The data set is classed as functional.
In data set [11] the test system is Mycobacterium tuberculosis. Briefly: Potency index, ratio of ciprofloxacin MIC to compound MIC for Mycobacterium tuberculosis H37Rv. The data set is classed as functional.
The test system of data set [12] is Mycobacterium tuberculosis. As to the kind of experiment: Antimycobacterial activity against Mycobacterium tuberculosis H37Rv after 5 days by MABA. The data set is classed as functional. The settings on record: 120 h.
A further data set has as its system HEK293. As to the kind of experiment: Cytotoxicity against HEK293 cells after 24 hrs by MTT assay. The settings on record: Homo sapiens, HEK293, 24 h. The data set is classed as cell-based.
The subject of data set [13] is Mycobacterium tuberculosis. Briefly: Potency index, ratio of pyrazinamide MIC to compound MIC for Mycobacterium tuberculosis H37Rv. The data set is classed as functional.
The subject of data set [14] is Mycobacterium tuberculosis. Briefly: Potency index, ratio of streptomycin MIC to compound MIC for Mycobacterium tuberculosis H37Rv. The data set is classed as functional.

In turn, `Fc1cc2nc(Cn3ccnc3)[nH]c2cc1Oc1ccccc1` returned an MIC in data set [1] of 12.5 to 100 µg/mL (≈ 40.5 to 324 µM).
For the compound `O=C(Cn1c(-c2cscn2)nc2ccccc21)Nc1ccc(I)cc1`, the IC50 in data set [2] fell in the range of 3 to 10 µM.
For `O=C1/C(=C\c2ccc(Br)cc2)SC(c2ccc(-n3ccnc3)cc2)N1Nc1ccccc1` (centres undefined), in [3], the MIC was 14.3 to 49.7 µM (≈ 7.18 to 25 µg/mL).
For the compound `Fc1cc2nc(Cn3ccnc3)[nH]c2cc1-n1ccnc1`, the MIC in [1] lay within 12.5 to 100 µg/mL (≈ 44.3 to 354 µM).
`Cc1ccc2c(c1)cc(-c1nc(-c3ccccc3)c(-c3ccccc3)n1-c1ccccc1)c1nnnn12`: the inhibition of growth at 100 µg/mL in data set [4] lay in the range of 17 to 99%.
With `COc1ccc(-n2c(-c3cc4ccccc4n4nnnc34)nc(-c3ccccc3)c2-c2ccccc2)cc1`, in [4], the inhibition of growth at 100 µg/mL lay in the range of 17 to 99%.
In the case of `CCc1nc2ccc(C)cc2n1CCCNc1ccc(C)cc1`, the MIC in data set [5] lay within 0.056 to 0.88 µM (≈ 0.0172 to 0.271 µg/mL).
Consider `Cc1ccc(-n2c(-c3cc4cc(C)ccc4n4nnnc34)nc(-c3ccccc3)c2-c2ccccc2)cc1`, for which the inhibition of growth at 100 µg/mL in [4] was in the range of 17 to 99%.
`CS(=O)(=O)c1nnc(-c2ncc([N+](=O)[O-])[nH]2)s1` returned an MIC in data set [6] of over 6.25 µg/mL. In data set [7], the selectivity ratio is 0.3 to 0.6.
For the compound `COc1ccc(NC(=O)Cn2c(-c3cscn3)nc3ccccc32)c(OC)c1`, the IC50 in [2] lay in the range of 3 to 10 µM.
`C[S+]([O-])c1nnc(-c2ncc([N+](=O)[O-])[nH]2)s1` (centres undefined): in [6], it took 1.56 µg/mL (≈ 6.02 µM) to inhibit growth (MIC). Besides, in data set [7], the selectivity ratio fell in the range of 0.3 to 0.6.
With `CCc1nc2ccc(C)cc2n1CCCNc1ccc(C)cc1C`, the minimum inhibitory concentration (MIC) in data set [5] lay within 0.056 to 0.88 µM (≈ 0.018 to 0.283 µg/mL).
With `COc1ccc(-c2nc3ccc(-c4ccc5nc(-c6ccccc6)[nH]c5c4)cc3[nH]2)cc1`, the MIC in [8] and in data set [9] was 0.25 to 1 µg/mL (≈ 0.6 to 2.4 µM) in each case.
With `CCc1nc2ccc(C)cc2n1CCCNc1ccc(OC)cc1`, in data set [5], the MIC lay within 0.056 to 0.88 µM (≈ 0.0181 to 0.285 µg/mL).
With `COc1ccc(-n2c(-c3cc4cc(C)ccc4n4nnnc34)nc(-c3ccccc3)c2-c2ccccc2)cc1`, the inhibition of growth at 100 µg/mL in [4] fell in the range of 17 to 99%.
As for `O=C(Cn1c(-c2cscn2)nc2ccccc21)Nc1ccc([N+](=O)[O-])cc1`, the half-maximal inhibitory concentration (IC50) in data set [2] lay within 3 to 10 µM.
The compound `Fc1cc2nc(Cn3ccnc3)[nH]c2cc1Oc1ccc(Cl)cc1` displayed an MIC in data set [1] of 12.5 to 100 µg/mL (≈ 36.5 to 292 µM).
In data set [5], `CCc1nc2ccc(C)cc2n1CCCNc1ccccc1` yielded an MIC of 0.056 µM (≈ 0.0164 µg/mL).
For the compound `CCCOc1cccc(NC(=O)Cn2c(-c3cscn3)nc3ccccc32)c1`, in data set [2], the IC50 was 3 to 10 µM.
As for `CCc1nc2ccc(C)cc2n1CCCSc1ccc(OC)cc1`, the MIC in [5] is 0.056 to 0.88 µM (≈ 0.0191 to 0.3 µg/mL).
With `CCc1nc2ccc(C)cc2n1CCCCSc1ccccc1`, the MIC in data set [5] fell in the range of 0.056 to 2.6 µM (≈ 0.0182 to 0.844 µg/mL).
`CCC[S+]([O-])c1nnc(-c2ncc([N+](=O)[O-])[nH]2)s1` (centres undefined) displayed an MIC in data set [6] of 1.56 µg/mL (≈ 5.43 µM). Also, the selectivity ratio in [7] was in the range of 0.3 to 0.6.
`CSc1nnc(-c2ncc([N+](=O)[O-])[nH]2)s1`: the MIC in data set [6] fell in the range of 3.13 to 6.25 µg/mL (≈ 12.9 to 25.7 µM).
For `COc1ccc2c(c1)cc(-c1nc(-c3ccccc3)c(-c3ccccc3)n1-c1ccccc1)c1nnnn12`, the inhibition of growth at 100 µg/mL in data set [4] lay within 17 to 99%.
Regarding `Cc1ccc(/C=C2/SC(c3ccc(-n4ccnc4)cc3)N(Nc3ccccc3)C2=O)cc1` (centres undefined), the MIC in data set [3] lay within 14.3 to 49.7 µM (≈ 6.26 to 21.8 µg/mL).
In turn, `CCc1nc2ccc(C)cc2n1CCCCNc1cccc(Cl)c1` gave an MIC in data set [5] of 0.056 to 2.6 µM (≈ 0.0191 to 0.889 µg/mL).
Compound `O=C(Cn1c(-c2cscn2)nc2ccccc21)Nc1ccccc1` yielded an IC50 in data set [2] of 3 to 10 µM.
As for `CCc1nc2ccc(C)cc2n1CCCCSc1ccc(OC)cc1`, the MIC in data set [5] was in the range of 0.056 to 2.6 µM (≈ 0.0199 to 0.922 µg/mL).
Compound `Fc1cc2nc(Cn3ccnc3)[nH]c2cc1Cl` yielded an MIC in data set [1] of 12.5 to 100 µg/mL (≈ 49.9 to 399 µM).
Take `CCOc1ccc(-c2nc3ccc(-c4ccc5nc(-c6ccc(OCC)cc6)[nH]c5c4)cc3[nH]2)cc1`: the MIC in [8] and in data set [9] was 0.5 to 16 µg/mL (≈ 1.05 to 33.7 µM) each time.
Turning to `Cn1c(-c2cccc(Cl)c2F)nc2cc(-c3nc(-c4ccc(Cl)cc4)no3)ccc21`, the Ratio in data set [10] is recorded as 4; in [11], 2; in [13] it was 2; in data set [14], 4. The MIC in data set [12] lay in the range of 1.6 to 25 µg/mL (≈ 3.64 to 56.9 µM). This compound gave an IC50 with HEK293 of over 500 µg/mL.
For `Nc1ccc(-c2nc3cc(-c4ccc5[nH]c(-c6ccc(N)cc6)nc5c4)ccc3[nH]2)cc1`, the MIC in data set [8] and in [9] was 0.5 to 16 µg/mL (≈ 1.2 to 38.4 µM) in each case.
The compound `O=C(O)c1cn(C2CC2)c2cc(N3CCNCC3)c(F)cc2c1=O` [CIPROFLOXACIN] returned an MIC in data set [12] of 3.12 µg/mL (≈ 9.43 µM).
Take `NNC(=O)c1ccncc1` [ISONIAZID]: the MIC worked out at 0.2 µg/mL (≈ 1.46 µM) in data set [1] and 6.25 µg/mL (≈ 45.6 µM) in data set [12].
In data set [12], `NC(=O)c1cnccn1` [PYRAZINAMIDE] gave a minimal inhibitory concentration (MIC) of 3.12 µg/mL (≈ 25.4 µM).
Consider `CN[C@@H]1[C@H](O[C@H]2[C@H](O[C@H]3[C@H](O)[C@@H](O)[C@H](N=C(N)N)[C@@H](O)[C@@H]3N=C(N)N)O[C@@H](C)[C@]2(O)C=O)O[C@@H](CO)[C@H](O)[C@H]1O` [STREPTOMYCIN], for which the values for the MIC in data set [1] and in data set [12] were 0.7 µg/mL (≈ 1.2 µM) and 6.25 µg/mL (≈ 10.7 µM), respectively.
